The target in data set [1] is ATP-dependent translocase ABCB1 (Homo sapiens, UniProt P08183). Put plainly: (§1) Inhibition of human Pgp-mediated DNR transport in NIH3T3 cells by microplate assay. The class given is cell-based, Mus musculus.
Data set [2] can be described thus: Partition coefficient, log P of the compound. It is filed as physicochemical. Particulars: octanol/water.
The next data set concerns the target P-gp (ABCB1) (Homo sapiens, UniProt P08183). Described as §1. The class given is cell-based, Mus musculus. Particulars: mouse, NIH3T3 cells expressing human P-gp, probe DNR; read-out: Imax.

SMILES strings stand for the structures.

ATP-dependent translocase ABCB1, sequence (P08183 whole entry): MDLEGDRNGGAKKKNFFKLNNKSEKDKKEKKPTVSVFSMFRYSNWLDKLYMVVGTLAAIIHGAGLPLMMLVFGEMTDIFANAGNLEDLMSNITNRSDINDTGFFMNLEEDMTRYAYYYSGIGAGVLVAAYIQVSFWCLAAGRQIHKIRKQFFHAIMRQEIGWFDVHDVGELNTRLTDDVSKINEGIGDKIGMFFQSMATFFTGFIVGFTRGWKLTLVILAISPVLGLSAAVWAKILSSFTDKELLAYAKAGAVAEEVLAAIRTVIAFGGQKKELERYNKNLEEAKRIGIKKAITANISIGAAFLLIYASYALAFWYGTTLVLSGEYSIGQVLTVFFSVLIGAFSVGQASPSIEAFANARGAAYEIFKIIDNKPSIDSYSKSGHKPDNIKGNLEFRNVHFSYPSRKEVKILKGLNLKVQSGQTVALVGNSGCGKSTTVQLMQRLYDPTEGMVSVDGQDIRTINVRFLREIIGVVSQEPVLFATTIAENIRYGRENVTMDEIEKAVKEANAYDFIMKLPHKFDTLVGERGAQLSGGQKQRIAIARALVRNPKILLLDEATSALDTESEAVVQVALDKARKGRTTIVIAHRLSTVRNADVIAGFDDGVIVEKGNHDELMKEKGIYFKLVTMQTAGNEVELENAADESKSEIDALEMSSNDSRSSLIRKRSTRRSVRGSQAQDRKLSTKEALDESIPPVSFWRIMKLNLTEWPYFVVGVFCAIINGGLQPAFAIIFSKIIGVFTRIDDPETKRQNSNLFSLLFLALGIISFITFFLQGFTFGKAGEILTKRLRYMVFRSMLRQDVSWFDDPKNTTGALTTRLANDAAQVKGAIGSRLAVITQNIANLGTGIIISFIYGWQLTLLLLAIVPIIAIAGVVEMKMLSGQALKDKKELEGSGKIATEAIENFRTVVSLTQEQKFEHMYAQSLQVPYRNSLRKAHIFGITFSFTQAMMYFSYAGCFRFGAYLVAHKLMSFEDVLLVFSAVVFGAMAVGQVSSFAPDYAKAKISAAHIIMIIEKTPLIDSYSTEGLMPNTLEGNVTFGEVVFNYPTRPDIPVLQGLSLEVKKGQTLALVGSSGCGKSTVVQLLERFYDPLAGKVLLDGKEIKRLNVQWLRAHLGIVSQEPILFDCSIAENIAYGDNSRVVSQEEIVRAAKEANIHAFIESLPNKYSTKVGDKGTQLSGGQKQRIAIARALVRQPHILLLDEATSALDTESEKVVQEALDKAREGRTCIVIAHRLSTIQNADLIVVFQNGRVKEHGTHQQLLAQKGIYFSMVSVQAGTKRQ
P-gp (ABCB1), sequence (P08183 whole entry): as above

As to `CC(=O)O[C@H]1C[C@@](C)(O)[C@]23OC(C)(C)[C@H](C[C@H](OC(=O)c4ccco4)[C@]2(C)[C@H]1OC(C)=O)[C@H]3OC(C)=O`, the Ki (in general, a measure of affinity in units of concentration, obtained from inhibition or displacement) in data set [1] (read-out: Ki) amounted to 100 µM. In addition, in data set [2] (read-out: LogP), the logP – broadly, a log measure of how a compound divides between an organic and an aqueous phase – worked out at 3.8.

As to `CC(=O)O[C@H]1[C@H](OC(=O)c2cccnc2)[C@@]2(C)[C@@H](OC(=O)c3ccccc3)[C@@H](OC(=O)c3ccccc3)[C@@H]3C[C@]2(OC3(C)C)[C@](C)(O)[C@H]1OC(C)=O`, the Ki in data set [1] (read-out: Ki) came out at 1.45 µM. At P-gp (ABCB1), the Emax came to 100%. Besides, in data set [2] (read-out: LogP), the logP was found to be 7.5.

Take `CC(=O)OC[C@]12[C@H](OC(=O)c3ccccc3)C(=O)[C@@H]3[C@@H](OC(C)=O)[C@]1(OC3(C)C)[C@H](C)C[C@H](OC(C)=O)[C@@H]2OC(C)=O`: the Ki in data set [1] (read-out: Ki) came to 2.54 µM. Moreover, the Emax at P-gp (ABCB1) amounted to 62.3%. Besides, in data set [2] (read-out: LogP), the logP was 6.1.

For the compound `CC(=O)OC[C@]12[C@H](OC(=O)c3ccccc3)C(=O)[C@@H]3[C@@H](OC(C)=O)[C@]1(OC3(C)C)[C@H](C)C[C@H](OC(C)=O)[C@@H]2O`, the Ki in data set [1] (read-out: Ki) turned out to be 18.4 µM. Further, at P-gp (ABCB1), the Emax turned out to be 91.7%. For the same compound, the logP in data set [2] (read-out: LogP) stood at 5.

As to `CC(=O)OC[C@]12[C@H](OC(C)=O)C(=O)[C@@H]3[C@@H](OC(C)=O)[C@]1(OC3(C)C)[C@H](C)C[C@H](OC(C)=O)[C@@H]2OC(=O)c1ccccc1`, in data set [1] (read-out: Ki), the Ki is 5.74 µM. Moreover, the Emax at P-gp (ABCB1) was 96.4%. Besides, the logP in data set [2] (read-out: LogP) is 6.1.

For the compound `CC(=O)O[C@H]1[C@@H](O)[C@H](OC(=O)c2ccccc2)[C@@]2(C)[C@@H](OC(=O)/C=C/c3ccccc3)C[C@@H]3C[C@]2(OC3(C)C)[C@@H]1C`, the Ki in data set [1] (read-out: Ki) is 4.25 µM. Moreover, on P-gp (ABCB1), the Emax was 63.7%. The logP in data set [2] (read-out: LogP) stood at 6.2.

In the case of `CC(=O)O[C@@H]1C[C@@](C)(O)[C@@]23C[C@@H](C[C@H](OC(=O)/C=C/c4ccccc4)[C@]2(C)[C@H]1OC(=O)c1ccccc1)C(C)(C)O3`, in data set [1] (read-out: Ki), the Ki worked out at 7.61 µM. The Emax at P-gp (ABCB1) came out at 100%. For the same compound, in data set [2] (read-out: LogP), the logP came to 6.5.

As to `CC(=O)OC[C@]12[C@H](OC(=O)c3ccccc3)C(=O)[C@@H]3[C@@H](OC(C)=O)[C@]1(OC3(C)C)[C@](C)(O)C[C@H](OC(=O)c1ccccc1)[C@@H]2OC(=O)c1ccccc1`, the Ki in data set [1] (read-out: Ki) worked out at 1.03 µM. On P-gp (ABCB1), the Emax was 80%. In data set [2], this compound gave a logP of 10.

On to `CC(=O)O[C@@H]1C[C@@](C)(O)[C@@]23C[C@@H](C[C@H](OC(=O)c4ccccc4)[C@]2(C)[C@H]1OC(=O)c1ccccc1)C(C)(C)O3`, for which the Ki in data set [1] (read-out: Ki) came out at 7.59 µM. Moreover, the Emax on P-gp (ABCB1) was found to be 89.8%. For the same compound, in data set [2] (read-out: LogP), the lipophilicity (logP) is 6.6.

For `CC(=O)OC[C@]12[C@H](OC(C)=O)C(=O)[C@@H]3[C@@H](OC(C)=O)[C@]1(OC3(C)C)[C@H](C)C[C@H](OC(C)=O)[C@@H]2OC(C)=O`, the Ki in data set [1] (read-out: Ki) turned out to be 9.83 µM. The Emax on P-gp (ABCB1) amounted to 100%. Moreover, the logP in data set [2] (read-out: LogP) was 4.

In the case of `C[C@@H]1[C@@H](O)[C@@H](O)[C@H](OC(=O)c2ccccc2)[C@@]2(C)[C@@H](OC(=O)/C=C/c3ccccc3)C[C@@H]3C[C@]12OC3(C)C`, the Ki in data set [1] (read-out: Ki) was 6.94 µM. Besides, the Emax at P-gp (ABCB1) was determined as 76.6%. In data set [2] (read-out: LogP), the logP was found to be 6.

In the case of `CC(=O)O[C@H]1[C@@H]2C[C@@]3(OC2(C)C)[C@](C)([C@H]1OC(=O)c1ccccc1)[C@@H](OC(=O)c1cccnc1)[C@H](OC(C)=O)[C@H](OC(=O)c1ccccc1)[C@@]3(C)O`, the Ki in data set [1] (read-out: Ki) was found to be 1.36 µM. The Emax on P-gp (ABCB1) was determined as 100%. For the same compound, the logP in data set [2] (read-out: LogP) is 7.8.

Regarding `CC(=O)O[C@H]1[C@H](OC(=O)c2ccccc2)[C@@]2(C)[C@@H](OC(=O)c3ccccc3)[C@@H](OC(=O)c3ccccc3)[C@@H]3C[C@]2(OC3(C)C)[C@](C)(O)[C@H]1OC(C)=O`, the Ki in data set [1] (read-out: Ki) stood at 0.73 µM. Also, on P-gp (ABCB1), the Emax was 98.7%. The logP in data set [2] (read-out: LogP) was determined as 8.8.

For `CC(=O)OC[C@]12[C@H](OC(=O)c3ccccc3)C(=O)[C@@H]3[C@@H](O)[C@]1(OC3(C)C)[C@](C)(O)C[C@H](OC(C)=O)[C@@H]2OC(=O)c1ccccc1`, in data set [1] (read-out: Ki), the inhibition constant Ki is 3.97 µM. In addition, the Emax at P-gp (ABCB1) stood at 74.4%. For the same compound, in data set [2] (read-out: LogP), the logP came out at 7.2.

For the compound `CC(=O)O[C@@H]1[C@H](OC(C)=O)[C@@H](C)[C@@]23C[C@@H](C[C@H](OC(=O)/C=C/c4ccccc4)[C@]2(C)[C@H]1OC(=O)c1ccccc1)C(C)(C)O3`, in data set [1] (read-out: Ki), the Ki was found to be 2.72 µM. The Emax on P-gp (ABCB1) is 75.8%. Besides, in data set [2] (read-out: LogP), the logP turned out to be 7.4.

Consider `CC(=O)O[C@H]1[C@H](OC(=O)/C=C/c2ccccc2)[C@@]2(C)[C@@H](OC(=O)c3ccccc3)C[C@@H]3C[C@]2(OC3(C)C)[C@](C)(O)[C@H]1OC(=O)c1cccnc1`, for which the Ki in data set [1] (read-out: Ki) turned out to be 2.07 µM. Also, on P-gp (ABCB1), the Emax amounted to 95.2%. The logP in data set [2] (read-out: LogP) amounted to 7.6.

Consider `CC(=O)O[C@H]1[C@H](OC(=O)c2ccccc2)[C@@]2(C)[C@@H](OC(=O)/C=C/c3ccccc3)C[C@@H]3[C@@H](OC(C)=O)[C@]2(OC3(C)C)[C@](C)(O)[C@H]1OC(=O)c1cccnc1`, for which the Ki in data set [1] (read-out: Ki) turned out to be 25 µM. The Emax on P-gp (ABCB1) stood at 100%. In addition, the logP in data set [2] (read-out: LogP) came to 8.

`CC(=O)O[C@H]1[C@H](OC(=O)c2ccccc2)[C@@]2(C)[C@@H](OC(=O)c3ccccc3)C[C@@H]3[C@@H](OC(C)=O)[C@]2(OC3(C)C)[C@](C)(O)[C@H]1OC(=O)c1cccnc1`: the Ki in data set [1] (read-out: Ki) was 3.75 µM. Besides, at P-gp (ABCB1), the Emax was 98.8%. Moreover, in data set [2] (read-out: LogP), the logP stood at 8.

As to `CC(=O)O[C@H]1[C@@H](OC(=O)c2ccco2)C[C@@](C)(O)[C@]23OC(C)(C)[C@H](C[C@H](OC(=O)c4ccco4)[C@]12C)[C@H]3OC(=O)c1ccco1`, the Ki in data set [1] (read-out: Ki) is 2.19 µM. Further, on P-gp (ABCB1), the Emax was 80.5%. For the same compound, the logP in data set [2] (read-out: LogP) was 6.5.

For the compound `CC(=O)OC[C@]12[C@H](OC(C)=O)[C@H](OC(C)=O)[C@@H]3[C@@H](OC(C)=O)[C@]1(O[C@@]3(C)COC(C)=O)[C@](C)(O)[C@@H](OC(C)=O)[C@H](OC(C)=O)[C@@H]2OC(C)=O`, the Ki in data set [1] (read-out: Ki) is 6.97 µM. On P-gp (ABCB1), the Emax amounted to 31%. In addition, the logP in data set [2] (read-out: LogP) worked out at 3.6.

`CC(=O)OC[C@]12[C@H](OC(=O)c3ccccc3)[C@H](OC(=O)c3ccccc3)[C@@H]3[C@@H](OC(C)=O)[C@]1(OC3(C)C)[C@H](C)C[C@H](OC(=O)c1ccccc1)[C@@H]2OC(=O)c1ccccc1`: the Ki in data set [1] (read-out: Ki) was 1.98 µM. Also, at P-gp (ABCB1), the Emax was 29.3%.

Take `CC(=O)OC[C@]12[C@H](OC(C)=O)C(=O)[C@@H]3[C@@H](OC(C)=O)[C@]1(OC3(C)C)[C@](C)(O)[C@@H](OC(C)=O)[C@H](OC(C)=O)[C@@H]2OC(=O)c1ccccc1`: the Ki in data set [1] (read-out: Ki) is 6.52 µM; in data set [1] (read-out: Log Ki (converted)), 0.302 µM. In addition, on P-gp (ABCB1), the Emax worked out at 53.9%. Besides, the logP in data set [2] (read-out: LogP) was 6.

`CC(=O)O[C@@H]1[C@H](O)[C@@H](C)[C@@]23C[C@@H](C[C@H](OC(=O)/C=C/c4ccccc4)[C@]2(C)[C@H]1OC(=O)c1ccccc1)C(C)(C)O3`: the Ki in data set [1] (read-out: Ki) was 8.46 µM. For the same compound, the Emax at P-gp (ABCB1) was found to be 82.9%. In data set [2] (read-out: LogP), the logP was 6.3.

Consider `CC(=O)OC[C@]12[C@H](OC(=O)c3ccccc3)C(=O)[C@@H]3[C@@H](OC(C)=O)[C@]1(OC3(C)C)[C@](C)(O)C[C@H](OC(C)=O)[C@@H]2OC(=O)c1ccccc1`, for which the Ki in data set [1] (read-out: Ki) turned out to be 3.01 µM. At P-gp (ABCB1), the Emax was 81.1%. Besides, the logP in data set [2] (read-out: LogP) came to 7.7.

On to `CC(=O)O[C@H]1[C@@H]2C[C@@]3(OC2(C)C)[C@](C)([C@H]1OC(=O)c1ccccc1)[C@@H](OC(=O)c1ccccc1)[C@H](OC(C)=O)[C@H](OC(C)=O)[C@@]3(C)O`, for which the Ki in data set [1] (read-out: Ki) stood at 1.27 µM. The Emax on P-gp (ABCB1) is 88.7%. In addition, in data set [2] (read-out: LogP), the logP was 6.8.

Source of the values: ChEMBL document CHEMBL1148809, “Biological evaluation, structure-activity relationships, and three-dimensional quantitative structure-activity relationship studies of dihydro-beta-agarofuran sesquiterpenes as modulators of P-glycoprotein-dependent multidrug resistance” (J Med Chem, 2007).
